From ChEMBL document CHEMBL4270481, “ALK5 kinase inhibitory activity and synthesis of 2,3,4-substituted 5,5-dimethyl-5,6-dihydro-4H-pyrrolo[1,2-b]pyrazoles” (Eur J Med Chem, 2017)
Calls of active or inactive are those of the source. No cut-off for these calls is given here.

Key:
[1] = molecular target: Cyclin-dependent kinase 2/cyclin E1 (Homo sapiens, UniProt P24941); experiment: Inhibition of human CDK2/cyclin E expressed in Sf9 insect cells using histone H1 as substrate in presence of [gamma-33P]ATP; format: cell-based
[2] = molecular target: Tyrosine-protein kinase ABL1 (Mus musculus, UniProt P00520); experiment: biochemical; format: cell-based, Sf9
K562 = experiment: Cytotoxicity against human K562 cells assessed as decrease in cell proliferation after 72 hrs by calcein AM staining-based assay; format: functional; conditions: K562, 72 h
MCF7 = experiment: Cytotoxicity against human MCF7 cells assessed as decrease in cell proliferation after 72 hrs by calcein AM staining-based assay; format: functional; conditions: MCF7, 72 h
[3] = molecular target: T1, TGF-beta receptor type-1 (Homo sapiens) (UniProt P36897); conditions: HeLa, at 1 µM
T1 sequence (whole entry): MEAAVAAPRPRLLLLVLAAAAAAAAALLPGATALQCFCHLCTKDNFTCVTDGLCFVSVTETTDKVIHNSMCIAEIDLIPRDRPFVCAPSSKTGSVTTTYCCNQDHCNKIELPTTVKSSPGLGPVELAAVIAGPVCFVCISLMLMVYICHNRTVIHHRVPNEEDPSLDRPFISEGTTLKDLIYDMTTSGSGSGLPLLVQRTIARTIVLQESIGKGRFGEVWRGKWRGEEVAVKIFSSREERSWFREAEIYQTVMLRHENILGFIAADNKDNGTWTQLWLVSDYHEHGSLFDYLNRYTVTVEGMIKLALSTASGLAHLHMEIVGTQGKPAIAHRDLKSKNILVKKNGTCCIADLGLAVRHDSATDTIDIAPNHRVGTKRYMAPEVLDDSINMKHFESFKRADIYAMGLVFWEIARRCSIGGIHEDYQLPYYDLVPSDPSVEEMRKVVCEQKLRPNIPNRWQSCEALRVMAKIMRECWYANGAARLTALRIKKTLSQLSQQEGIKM
Description: Inhibition of ALK5 in serum starved human HeLa cells assessed as reduction in TGF-beta-induced SMAD2/3 nuclear transaction at 1 uM pre-incubated for 30 mins before TGF-beta stimulation for 30 mins by immunofluorescence analysis

TGF-beta receptor type-1 = molecular target: T2, TGF-beta receptor type-1 (Homo sapiens, UniProt P36897); experiment: Inhibition of human ALK5 expressed in Sf9 insect cells using casein as substrate in presence of [gamma-33P]ATP; format: cell-based
T2 sequence (P36897 whole entry): T1 sequence (whole entry)

Sequence of Tyrosine-protein kinase ABL1 (P00520 whole entry): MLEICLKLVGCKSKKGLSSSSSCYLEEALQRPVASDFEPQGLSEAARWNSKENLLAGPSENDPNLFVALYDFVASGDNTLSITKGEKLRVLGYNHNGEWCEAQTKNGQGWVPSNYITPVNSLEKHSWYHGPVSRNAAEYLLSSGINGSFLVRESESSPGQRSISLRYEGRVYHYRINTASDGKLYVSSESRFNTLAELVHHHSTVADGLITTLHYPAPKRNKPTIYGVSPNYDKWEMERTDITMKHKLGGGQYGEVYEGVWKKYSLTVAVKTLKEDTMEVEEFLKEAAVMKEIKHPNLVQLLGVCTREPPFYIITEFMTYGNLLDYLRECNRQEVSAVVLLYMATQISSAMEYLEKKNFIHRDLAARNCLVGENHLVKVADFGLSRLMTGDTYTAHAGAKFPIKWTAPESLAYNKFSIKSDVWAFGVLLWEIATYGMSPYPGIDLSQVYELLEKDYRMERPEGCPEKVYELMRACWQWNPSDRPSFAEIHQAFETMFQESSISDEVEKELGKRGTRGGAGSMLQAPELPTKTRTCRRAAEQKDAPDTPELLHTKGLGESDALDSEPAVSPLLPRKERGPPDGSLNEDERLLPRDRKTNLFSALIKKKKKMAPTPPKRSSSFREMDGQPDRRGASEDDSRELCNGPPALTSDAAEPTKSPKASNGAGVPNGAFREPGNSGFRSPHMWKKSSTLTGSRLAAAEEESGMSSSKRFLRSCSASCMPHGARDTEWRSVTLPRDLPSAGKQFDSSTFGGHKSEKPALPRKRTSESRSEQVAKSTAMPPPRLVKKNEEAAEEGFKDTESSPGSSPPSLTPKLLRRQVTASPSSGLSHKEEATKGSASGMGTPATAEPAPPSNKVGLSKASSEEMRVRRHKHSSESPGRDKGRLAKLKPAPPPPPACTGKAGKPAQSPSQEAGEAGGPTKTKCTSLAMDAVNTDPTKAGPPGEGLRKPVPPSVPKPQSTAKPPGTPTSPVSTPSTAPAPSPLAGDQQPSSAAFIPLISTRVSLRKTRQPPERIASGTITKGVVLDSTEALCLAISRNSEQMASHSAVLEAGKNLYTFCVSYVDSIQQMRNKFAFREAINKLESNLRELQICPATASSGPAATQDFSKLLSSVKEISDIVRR

SMILES | IC50 [1] [µM] | IC50 [2] [µM] | IC50 (K562) [µM] | IC50 (MCF7) [µM] | inhibition [3] | IC50 (TGF-beta receptor type-1) [µM]
Cc1cccc(-c2n[nH]cc2-c2ccc3ncccc3n2)n1 [GW786460X] | > 100 | 21 | > 100 | > 100 | Active | –
CC1(C)Cc2c(-c3ccncc3)c(-c3ccccn3)nn2C1 | > 50 | > 50 | > 100 | > 100 | – | 1.94
CCc1cccc(-c2nn3c(c2-c2ccc(O)cc2)C(C)C(C)(C)C3)n1 (stereo not given) | > 100 | > 100 | > 100 | 46 | – | 0.098
Cc1cccc(-c2nn3c(c2-c2ccc(O)cc2)[C@@H](C)C(C)(C)C3)n1 | > 25 | > 100 | > 50 | > 50 | – | 0.197
CCc1cccc(-c2nn3c(c2-c2ccncc2)C(C)C(C)(C)C3)n1 (stereo not given) | > 100 | 43 | > 100 | > 100 | – | 0.183
Cc1cccc(-c2nn3c(c2-c2ccnc(Cl)c2)C(C)C(C)(C)C3)n1 (stereo not given) | > 100 | > 100 | > 100 | > 100 | – | 0.517
CCOC(=O)c1ccc(-c2c(-c3cccc(C)n3)nn3c2C(C)C(C)(C)C3)cc1 (stereo not given) | > 100 | > 100 | 45 | 29 | – | 2.01
CC1c2c(-c3ccncc3)c(-c3ccccc3C#N)nn2CC1(C)C (stereo not given) | > 100 | 11 | 77 | > 100 | – | 1.29
Cc1cccc(-c2nn3c(c2-c2ccncc2)C(C)C(C)(C)C3)c1C#N (stereo not given) | > 100 | 6.4 | 92 | 97 | – | 0.162
Cc1cccc(-c2nn3c(c2-c2ccncc2)CC(C)(C)C3)n1 | > 100 | 26 | > 100 | > 100 | – | 0.406
Cc1cccc(-c2nn3c(c2-c2ccc(O)cc2)[C@H](C)C(C)(C)C3)n1 | > 100 | > 100 | > 100 | > 100 | – | 0.097
CCc1cccc(-c2nn3c(c2-c2ccnc(Cl)c2)C(C)C(C)(C)C3)n1 (stereo not given) | > 100 | > 100 | 82 | > 100 | – | 2.74
Cc1cccc(-c2nn3c(c2-c2ccnc(Nc4ccc(S(N)(=O)=O)cc4)c2)CC(C)(C)C3)n1 | > 100 | 2.5 | 52 | 92 | – | 0.147
COCC1c2c(-c3ccncc3)c(-c3cccc(C)n3)nn2CC1(C)C (stereo not given) | > 100 | 25 | > 100 | > 100 | – | 0.743
CC1(C)Cc2c(-c3ccc(O)cc3)c(-c3ccccn3)nn2C1 | > 100 | > 100 | 74 | > 100 | – | 1.99
Cc1cccc(-c2nn3c(c2-c2ccc(O)cc2)C(C)C(C)(C)C3)c1C#N (stereo not given) | > 12 | > 12 | > 12 | > 12 | – | 0.341
Cc1cccc(-c2nn3c(c2-c2ccnc(Cl)c2)CC(C)(C)C3)n1 | > 100 | > 100 | > 100 | > 100 | – | 1.23
CC1c2c(-c3ccc(O)cc3)c(-c3ccccc3C#N)nn2CC1(C)C (stereo not given) | > 12 | > 12 | > 12 | > 12 | – | 5.19
CCc1cccc(-c2nn3c(c2-c2ccnc(Nc4ccc(S(N)(=O)=O)cc4)c2)C(C)C(C)(C)C3)n1 (stereo not given) | 37 | 6.8 | 24 | 28 | – | 0.229
CCc1cccc(-c2nn3c(c2-c2ccc(O)cc2)[C@H](C)C(C)(C)C3)n1 | > 100 | > 100 | > 100 | > 100 | – | 0.137
Cc1cc(-c2c(-c3cccc(C)n3)nn3c2C(C)C(C)(C)C3)ccn1 (stereo not given) | > 100 | 25 | > 100 | > 100 | – | 0.548
CCc1cccc(-c2nn3c(c2-c2ccc(OC)cc2)C(C)C(C)(C)C3)n1 (stereo not given) | > 100 | > 100 | 64 | 45 | – | 0.805
Cc1cccc(-c2nn3c(c2-c2ccncc2)C(CO)C(C)(C)C3)n1 (stereo not given) | > 100 | 93 | > 100 | > 100 | – | 1.41
Cc1cccc(-c2nn3c(c2-c2ccc(O)cc2)CC(C)(C)C3)n1 | > 100 | 20 | > 25 | > 25 | – | 0.229
Cc1cccc(-c2nn3c(c2-c2ccnc(Nc4ccc(S(N)(=O)=O)cc4)c2)C(C)C(C)(C)C3)n1 (stereo not given) | 11 | 0.55 | 31 | 22 | – | 0.154
Cc1cccc(-c2nn3c(c2-c2ccncc2)C(C)C(C)(C)C3)n1 (stereo not given) | > 100 | 21 | > 100 | > 100 | – | 0.181
COc1ccc(-c2c(-c3cccc(C)n3)nn3c2C(C)C(C)(C)C3)cc1 (stereo not given) | > 100 | > 100 | 88 | 66 | – | 0.612
CCc1cccc(-c2nn3c(c2-c2ccc(O)cc2)[C@@H](C)C(C)(C)C3)n1 | 53 | > 100 | 77 | 58 | – | 0.261
CC1(C)Cc2c(-c3ccncc3)c(-c3ccccc3C#N)nn2C1 | > 100 | 20 | > 100 | > 100 | – | 2.52
